Assay results published in paper PMC11672137, “High-Affinity Lectin Ligands Enable the Detection of Pathogenic Pseudomonas aeruginosa Biofilms: Implications for Diagnostics and Therapy” (JACS Au, 2024).

Test system: P. aeruginosa PAO1 biofilms
Experiment: In vitro biofilm staining under flow conditions, injection method
Format: cell-based, Pseudomonas aeruginosa
Settings: 17 μM in channel, 10 min incubation, then flow 3 mL/h for 10-20 min
Protocol: P. aeruginosa biofilms were grown under flow conditions and observed by fluorescence microscopy in analogy to Ghanbari et al.[66] To this end, P. aeruginosa PAO1 expressing the red fluorescent protein mCherry[56] was diluted to an OD600 nm of 0.1 and injected into the microfluidics device. After a 30-min settling period, biofilms were grown under a constant laminar flow rate of 3 mL/h per channel. Following 48 h of incubation at 30 °C, dense and mature P. aeruginosa PAO1 biofilms were observed, which were then further used for analysis of the imaging probes.
Two different staining methods were evaluated for the imaging of P. aeruginosa PAO1 biofilms: (I) direct injection of the imaging compounds into the flow system or (II) compound supplementation into the medium and gradual accumulation at the biofilm (Figure S18). […] The flow of compounds 17 and 24 and their arrival in the flow cells were monitored using a fluorescence microscope attached to the flow system. […]
Figure 4 Staining of P. aeruginosa PAO1 biofilms under flow following the injection method. […] Pictures of the same aggregates were recorded prior to compound injection (t−10), during a 10 min incubation period without flow (t0) and during the wash period (constant flow, 3 mL/h) at different time points t5, t10, t15, and t20 (5, 10, 15, and 20 min) using a fluorescence microscope. […]

O=C(CCc1ccc(O[C@@H]2O[C@H](CO)[C@H](O)[C@H](O)[C@H]2O)cc1)Nc1ccc(CN(CCc2cn(CCOCCOCCOCCNC(=S)Nc3ccc4c(c3)C(=O)OC43c4ccc(O)cc4Oc4cc(O)ccc43)nn2)Cc2ccc(NC(=O)CCc3ccc(O[C@@H]4O[C@H](CO)[C@H](O)[C@H](O)[C@H]4O)cc3)cc2)cc1 [compound 17]
Retention of fluorescence at biofilm during wash: retained at the P. aeruginosa biofilm aggregates
